Consider 1 molecule from patent publication US12042503B2, “Compositions and methods for treating coronavirus infections” (priority 2020, dated 2024).

For one series, the target named is T1, DP1 receptor (PTGDR) (Homo sapiens, UniProt Q13258).
T1 construct: host or cells: cAMP Hunter (DP receptor) cell line
T1 sequence (Q13258 1-359): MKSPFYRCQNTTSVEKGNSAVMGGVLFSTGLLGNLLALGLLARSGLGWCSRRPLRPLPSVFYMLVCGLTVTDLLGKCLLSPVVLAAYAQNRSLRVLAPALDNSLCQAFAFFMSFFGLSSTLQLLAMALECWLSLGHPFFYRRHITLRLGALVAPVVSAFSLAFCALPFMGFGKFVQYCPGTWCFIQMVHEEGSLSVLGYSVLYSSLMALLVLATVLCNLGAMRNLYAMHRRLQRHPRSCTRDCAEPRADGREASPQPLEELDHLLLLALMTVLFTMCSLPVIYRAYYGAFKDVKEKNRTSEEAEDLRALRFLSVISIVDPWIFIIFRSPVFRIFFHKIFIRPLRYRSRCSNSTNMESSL
Kind of series: cAMP Hunter cell-based prostanoid receptor assay, DP receptor. The note with it: HitHunter cAMP cell line. On the procedure:
(§1) DiscoverX cell-based ligand binding assays were performed in the PathHunter beta-arrestin (EP1, EP2, EP3, EP4, FP, IP, and TP receptors) or cAMP Hunter™ (DP receptor) cell lines.
(§2) Receptor binding studies were performed in either the PathHunter® b-Arrestin (EP1, EP2, EP3, EP4, FP, IP, and TP receptors) or cAMP Hunter™ (DP receptor) cell lines. A 10 mM working stock of GP1681 was created in 1×PBS, pH 7.4. All assays were carried out in duplicate with 10 individual concentrations of GP1681. A three-fold dilution series of GP1681 was established for the initial or pilot experiment with a starting concentration of 4 uM (starting concentration was chosen based on previous Gemmus Pharma preclinical experimental results).
(§3) GP1681 was incubated with cells lines at either 37° C. or room temperature, for 90-180 minutes (temperatures and incubation times are all dependent on established optimized procedures for each receptor cell line) after which cell wells were processed and signal production detected. […] Vehicle only controls (PBS, pH 7.4) were also included for each receptor cell line. Receptor binding activity was analyzed using CBIS data analysis suite (ChemInnovation, CA). The percentage of activity was calculated using the following formula: % Activity=100%×(mean RLU of test sample−mean RLU of vehicle control)/(mean MAX control ligand−mean RLU of vehicle control). Dose curves were performed and EC50 values determined.
(§4) The four assays were repeated with a higher starting concentration.
(§5) The second experimental run of the receptor binding assay was performed with these last four cell lines including GP1681 and their respective positive and negative (vehicle, PBS pH 7.4) controls. A 10 mM GP1681 working stock was again created in 1×PBS, pH 7.4. A three-fold serial dilution scheme was again used for GP1681 samples, starting this time at a concentration of 500 μM. The remainder of the second experimental run was performed in the same manner as run 1.

A further series has as its target T2, EP1 receptor (PTGER1) (Homo sapiens, UniProt P34995).
T2 construct: host or cells: PathHunter beta-arrestin cell line
T2 sequence (P34995 1-402): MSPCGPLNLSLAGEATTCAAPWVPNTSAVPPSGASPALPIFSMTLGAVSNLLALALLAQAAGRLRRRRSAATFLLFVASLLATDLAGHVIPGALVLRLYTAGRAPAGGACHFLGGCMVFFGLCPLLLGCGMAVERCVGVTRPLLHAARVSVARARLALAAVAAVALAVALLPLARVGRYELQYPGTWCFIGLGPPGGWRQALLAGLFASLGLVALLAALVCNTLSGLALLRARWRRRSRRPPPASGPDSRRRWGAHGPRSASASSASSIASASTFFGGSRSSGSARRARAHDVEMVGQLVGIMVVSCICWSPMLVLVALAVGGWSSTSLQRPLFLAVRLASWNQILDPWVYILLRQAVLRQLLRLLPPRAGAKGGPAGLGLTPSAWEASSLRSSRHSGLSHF
In words: PathHunter beta-arrestin cell-based prostanoid receptor assay, EP1. The note with it: β-Arrestin. How it is done:
as §1, §2, §3, §4, §5

A further series concerns the target T3, IP receptor (PTGIR) (Homo sapiens, UniProt P43119).
T3 construct: host or cells: PathHunter beta-arrestin cell line
Kind of series: PathHunter beta-arrestin cell-based prostanoid receptor assay, IP. The note with it: Run 1, GP1681 starting concentration 4 uM; β-Arrestin; read-out: EC50. On the procedure:
as §1, §2, §3

The target of the next series is T4, EP4 receptor (PTGER4) (Homo sapiens, UniProt P35408).
T4 construct: expressed in transfected cells; host or cells: PathHunter β-Arrestin PTGER4 (EP4) cell line
T4 sequence (P35408 whole entry): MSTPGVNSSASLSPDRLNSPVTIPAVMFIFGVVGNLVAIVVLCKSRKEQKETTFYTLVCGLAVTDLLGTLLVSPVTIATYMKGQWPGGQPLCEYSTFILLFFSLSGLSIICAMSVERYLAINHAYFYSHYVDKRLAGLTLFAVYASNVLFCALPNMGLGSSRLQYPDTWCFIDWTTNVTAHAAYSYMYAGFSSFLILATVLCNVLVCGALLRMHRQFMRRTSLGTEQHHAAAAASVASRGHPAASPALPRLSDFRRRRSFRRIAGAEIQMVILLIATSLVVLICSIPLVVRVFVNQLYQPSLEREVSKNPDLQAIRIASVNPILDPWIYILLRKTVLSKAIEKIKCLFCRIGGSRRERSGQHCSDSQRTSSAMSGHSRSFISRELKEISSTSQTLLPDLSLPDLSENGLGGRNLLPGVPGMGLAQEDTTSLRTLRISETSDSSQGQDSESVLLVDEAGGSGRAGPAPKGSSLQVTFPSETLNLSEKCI
Kind of series: PathHunter beta-arrestin cell-based prostanoid receptor assay, EP4. Conditions: β-Arrestin. On the procedure:
as §1, §2
GP1681 was incubated with cells lines at either 37° C. or room temperature, for 90-180 minutes (temperatures and incubation times are all dependent on established optimized procedures for each receptor cell line) after which cell wells were processed and signal production detected. […] Receptor binding activity was analyzed using CBIS data analysis suite (ChemInnovation, CA). The percentage of activity was calculated using the following formula: % Activity=100%×(mean RLU of test sample−mean RLU of vehicle control)/(mean MAX control ligand−mean RLU of vehicle control). Dose curves were performed and EC50 values determined. […]

Series [1] can be described thus: Stability of GP1681 dosing formulations at room temperature by UHPLC. The note with it: 10% (w/v) PEG 400 in calcium and magnesium free PBS, pH 7.4; 0.0319 and 0.0596 mg/mL. In kind it is physicochemical. On the procedure: GP1681 in 10% (w/v) polyethylene glycol (PEG) 400 in calcium and magnesium free phosphate buffered saline (PBS), pH 7.4 was used for evaluation by ultra-high performance liquid chromatography (UHPLC; Agilent 1290 UHPLC instrument).
Dosing formulations of GP1681 (0, 0.01, 0.03, and 0.05 mg/mL) in 10% (w/v) PEG 400 in calcium and magnesium free PBS, pH 7.4 were collected and analyzed by UHPLC to assess accuracy of the preparation. Aliquots from the top, middle and bottom of the formulations were collected and analyzed to assess homogeneity of the formulations. The dosing formulations were diluted to bring the test article concentration to a suitable level within the calibration range. The samples were initially analyzed on the day of preparation. However, due to unacceptable results observed, the backup samples (stored at −10 to −30° C.) were analyzed five days later.
The concentration of GP1681 was calculated by reference to the solvent standard solutions prepared and analyzed concurrently with the dosing formulations. […]
Stability of the dosing formulations was determined by storing the middle aliquots of the high and low primary dose formulation samples in the Definitive Assay at room temperature for 3.7 hours and reanalyzing as described above. The results met the acceptance criterion of 90-110% of the concentration determined at T=0.

A further series deals with T5, EP2 receptor (PTGER2) (Homo sapiens, UniProt P43116).
T5 construct: host or cells: PathHunter beta-arrestin cell line
T5 sequence (P43116 whole entry): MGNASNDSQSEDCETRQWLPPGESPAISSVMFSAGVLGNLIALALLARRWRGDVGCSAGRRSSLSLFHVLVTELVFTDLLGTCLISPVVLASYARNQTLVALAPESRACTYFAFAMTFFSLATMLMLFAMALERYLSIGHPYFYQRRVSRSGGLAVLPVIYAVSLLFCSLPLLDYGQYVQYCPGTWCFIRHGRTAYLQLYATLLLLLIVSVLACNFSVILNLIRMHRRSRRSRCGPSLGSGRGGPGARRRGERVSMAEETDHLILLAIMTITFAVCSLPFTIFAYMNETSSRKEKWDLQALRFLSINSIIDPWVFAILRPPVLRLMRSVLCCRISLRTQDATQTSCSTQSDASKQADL
In words: PathHunter beta-arrestin cell-based prostanoid receptor assay, EP2. On the procedure: as §1, §2
GP1681 was incubated with cells lines at either 37° C. or room temperature, for 90-180 minutes (temperatures and incubation times are all dependent on established optimized procedures for each receptor cell line) after which cell wells were processed and signal production detected. […] Receptor binding activity was analyzed using CBIS data analysis suite (ChemInnovation, CA). The percentage of activity was calculated using the following formula: % Activity=100%×(mean RLU of test sample−mean RLU of vehicle control)/(mean MAX control ligand−mean RLU of vehicle control). Dose curves were performed and EC50 values determined.

Series [2] can be described thus: Effect of food on oral absorption of GP1681.
The mark [3] stands for this setting: Run 1, GP1681 starting concentration 4 uM, curve for GP1681 not fully sigmoidal.
Setting [4] is: Run 2, GP1681 starting concentration 500 μM.

T3 sequence (P43119 whole entry): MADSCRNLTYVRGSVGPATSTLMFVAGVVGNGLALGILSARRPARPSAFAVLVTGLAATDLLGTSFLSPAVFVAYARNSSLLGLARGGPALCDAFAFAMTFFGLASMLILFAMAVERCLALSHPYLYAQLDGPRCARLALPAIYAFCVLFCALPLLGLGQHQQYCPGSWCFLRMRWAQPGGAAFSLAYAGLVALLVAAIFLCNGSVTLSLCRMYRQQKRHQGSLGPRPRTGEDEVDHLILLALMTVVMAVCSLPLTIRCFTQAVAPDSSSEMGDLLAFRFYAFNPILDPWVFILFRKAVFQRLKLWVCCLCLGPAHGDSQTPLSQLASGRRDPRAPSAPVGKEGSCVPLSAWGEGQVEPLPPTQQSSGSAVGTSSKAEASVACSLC

As for `CC#CCC(C)C(O)C=CC1C(O)CC2Oc3c(CCCC(=O)O)cccc3C21` (single isomer, unassigned) [GP1681, esuberaprost], the EC50 on DP1 receptor (PTGDR) (setting [3]) is 1350 nM; at DP1 receptor (PTGDR) (setting [4]) it was 1330 nM; at EP1 receptor (PTGER1) (setting [3]) it was 1080 nM; on EP1 receptor (PTGER1) (setting [4]), 7810 nM; at IP receptor (PTGIR) it was 110 nM; at EP4 receptor (PTGER4) (setting [3]) it was 1740 nM. Further, the concentration for a half-maximal effect (EC50) was 18100 nM on EP4 receptor (PTGER4) (setting [4]) and > 4000 nM at EP2 receptor (PTGER2) (Run 1, GP1681 starting concentration 4 uM, β-Arrestin). Moreover, in series [1], the “stable at room temperature” value is recorded as “at least 3.7 hours”. The “binding to EP2 receptor, in words” value on EP2 receptor (PTGER2) is recorded as “does not bind”. Besides, in series [2], the “effect of food on oral absorption” value is reported as “positive effect”.

What is called EC50 is the concentration that produces a half-maximal response.
